Molecular target: T1, Bco1l (Salmo salar, UniProt A0A1S2X8G0)
T1 construct: the ssa11 copy is truncated), expressed in carotenoid-producing E. coli XL1-Blue, 528 aa
T1 sequence (A0A1S2X8G0 1-528): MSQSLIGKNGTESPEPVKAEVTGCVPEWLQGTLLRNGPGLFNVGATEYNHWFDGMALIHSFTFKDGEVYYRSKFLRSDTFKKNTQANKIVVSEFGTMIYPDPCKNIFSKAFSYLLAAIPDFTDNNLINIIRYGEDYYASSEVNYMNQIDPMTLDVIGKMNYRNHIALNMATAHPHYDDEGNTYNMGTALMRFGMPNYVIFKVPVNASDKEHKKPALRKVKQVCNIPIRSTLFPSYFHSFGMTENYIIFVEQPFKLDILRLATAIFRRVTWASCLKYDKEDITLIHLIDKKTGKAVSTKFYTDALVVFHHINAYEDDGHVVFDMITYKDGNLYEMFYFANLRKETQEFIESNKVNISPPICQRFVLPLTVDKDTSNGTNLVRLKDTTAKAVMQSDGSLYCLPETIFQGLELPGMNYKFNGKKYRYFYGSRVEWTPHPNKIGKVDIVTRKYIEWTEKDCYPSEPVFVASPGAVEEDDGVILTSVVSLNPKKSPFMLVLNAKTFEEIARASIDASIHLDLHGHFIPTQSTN
Assay: HPLC of cleavage products in beta-carotene-producing E. coli
Type: cell-based
Conditions: E. coli co-expression, IPTG 0.2 mM, 16 h at 25 °C in darkness; 15,15' oxidative cleavage

CC1=C(/C=C/C(C)=C/C=C/C(C)=C/C=C/C=C(C)/C=C/C=C(C)/C=C/C2=C(C)CCCC2(C)C)C(C)(C)CCC1 [beta-carotene]
HPLC of cleavage products in beta-carotene-producing E. coli: The results showed that Bco1l cleaved beta-carotene (Fig. 6A).

From publication PMC6934663, “Genomic and functional gene studies suggest a key role of beta-carotene oxygenase 1 like (bco1l) gene in salmon flesh color” (Scientific Reports, 2019)
